According to paper PMC8788145 (Journal of medicinal chemistry, 2017):
Values joined by “and” are separate entries in the source; they are usually repeats but may differ in a detail not shown here. Equal values may be shown once.

Experiments:
human plasmin [1] = molecular target: T1, human plasmin (Homo sapiens, UniProt P00747); assay: Direct inhibition of human plasmin, chromogenic substrate; assay type: biochemical; settings: for HS (Hill slope): Tris-HCl buffer pH 7.4, 37 °C
human plasmin [2] = molecular target: T1, human plasmin; assay: Michaelis-Menten kinetics of Spectrozyme PL hydrolysis by human plasmin; assay type: biochemical

T1 sequence (P00747 97-580 limits assumed): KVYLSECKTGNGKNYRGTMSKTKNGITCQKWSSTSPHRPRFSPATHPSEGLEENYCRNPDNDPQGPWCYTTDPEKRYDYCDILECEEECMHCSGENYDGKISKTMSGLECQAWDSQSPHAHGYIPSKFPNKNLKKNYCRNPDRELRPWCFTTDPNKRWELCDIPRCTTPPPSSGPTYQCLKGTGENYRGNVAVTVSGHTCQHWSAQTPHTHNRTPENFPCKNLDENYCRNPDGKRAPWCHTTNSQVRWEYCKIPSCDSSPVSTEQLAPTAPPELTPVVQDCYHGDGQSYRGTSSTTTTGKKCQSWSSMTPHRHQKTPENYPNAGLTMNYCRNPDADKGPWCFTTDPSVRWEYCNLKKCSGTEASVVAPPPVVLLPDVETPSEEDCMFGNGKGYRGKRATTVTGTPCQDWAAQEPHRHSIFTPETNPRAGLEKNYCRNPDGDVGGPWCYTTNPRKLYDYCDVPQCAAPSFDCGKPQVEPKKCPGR
T1 sequence (P00747 581-810 limits assumed): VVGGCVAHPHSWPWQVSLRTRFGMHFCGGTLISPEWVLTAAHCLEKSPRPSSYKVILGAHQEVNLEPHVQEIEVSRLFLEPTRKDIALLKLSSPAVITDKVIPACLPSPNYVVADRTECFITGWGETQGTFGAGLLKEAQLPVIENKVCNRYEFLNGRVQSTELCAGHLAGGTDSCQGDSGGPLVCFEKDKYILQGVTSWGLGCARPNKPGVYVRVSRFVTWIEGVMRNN

| SMILES | HS (Hill slope) (human plasmin [1]) | further results |
| --- | --- | --- |
| Cc1cc(COc2cc(OS(=O)(=O)[O-])cc3oc(-c4ccc(OS(=O)(=O)[O-])c(OS(=O)(=O)[O-])c4)c(OS(=O)(=O)[O-])c(=O)c23)c(C)cc1COc1cc(OS(=O)(=O)[O-])cc2oc(-c3ccc(OS(=O)(=O)[O-])c(OS(=O)(=O)[O-])c3)c(OS(=O)(=O)[O-])c(=O)c12.[Na+].[Na+].[Na+].[Na+].[Na+].[Na+].[Na+].[Na+] [NSGM 4, Sodium 4-(5-((4-(((2-(3,4-Bis(sulfonatooxy)phenyl)-4-oxo-3,7-bis(sulfonatooxy)-4H-chromen-5-yl)oxy)methyl)-2,5-dimethylbenzyl)oxy)-4-oxo-3,7-bis(sulfonatooxy)-4H-chromen-2-yl)-1,2-phenylene Bis(sulfate)] | 0.7 ± 0.1 |  |
| O=c1c(OS(=O)(=O)[O-])c(-c2ccc(OS(=O)(=O)[O-])c(OS(=O)(=O)[O-])c2)oc2cc(OS(=O)(=O)[O-])cc(OCc3cccc(COc4cc(OS(=O)(=O)[O-])cc5oc(-c6ccc(OS(=O)(=O)[O-])c(OS(=O)(=O)[O-])c6)c(OS(=O)(=O)[O-])c(=O)c45)n3)c12.[Na+].[Na+].[Na+].[Na+].[Na+].[Na+].[Na+].[Na+] [NSGM 6, Sodium 4-(5-((6-(((2-(3,4-Bis(sulfonatooxy)phenyl)-4-oxo-3,7-bis(sulfonatooxy)-4H-chromen-5-yl)oxy)methyl)pyridin-2-yl)methoxy)-4-oxo-3,7-bis(sulfonatooxy)-4H-chromen-2-yl)-1,2-phenylene Bis(sulfate)] | 0.8 ± 0.2 |  |
| O=c1c(OS(=O)(=O)[O-])c(-c2ccc(OS(=O)(=O)[O-])c(OS(=O)(=O)[O-])c2)oc2cc(OS(=O)(=O)[O-])cc(OCc3ccc(-c4ccc(COc5cc(OS(=O)(=O)[O-])cc6oc(-c7ccc(OS(=O)(=O)[O-])c(OS(=O)(=O)[O-])c7)c(OS(=O)(=O)[O-])c(=O)c56)cc4)cc3)c12.[Na+].[Na+].[Na+].[Na+].[Na+].[Na+].[Na+].[Na+] [NSGM 3, Sodium 4-(5-((4′-(((2-(3,4-Bis(sulfonatooxy)phenyl)-4-oxo-3,7-bis(sulfonatooxy)-4H-chromen-5-yl)oxy)methyl)-[1,1′-bi-phenyl]-4-yl)methoxy)-4-oxo-3,7-bis(sulfonatooxy)-4H-chromen-2-yl)-1,2-phenylene Bis(sulfate)] | 0.8 ± 0.2 |  |
| O=c1c(OS(=O)(=O)[O-])c(-c2ccc(OS(=O)(=O)[O-])c(OS(=O)(=O)[O-])c2)oc2cc(OS(=O)(=O)[O-])cc(OCc3cccc(COc4cc(OS(=O)(=O)[O-])cc5oc(-c6ccc(OS(=O)(=O)[O-])c(OS(=O)(=O)[O-])c6)c(OS(=O)(=O)[O-])c(=O)c45)c3)c12.[Na+].[Na+].[Na+].[Na+].[Na+].[Na+].[Na+].[Na+] [NSGM 5, Sodium 4-(5-((3-(((2-(3,4-Bis(sulfonatooxy)phenyl)-4-oxo-3,7-bis(sulfonatooxy)-4H-chromen-5-yl)oxy)methyl)benzyl)-oxy)-4-oxo-3,7-bis(sulfonatooxy)-4H-chromen-2-yl)-1,2-phenylene Bis(sulfate)] | 0.6 ± 0.1 |  |
| O=c1cc(-c2ccc(OS(=O)(=O)[O-])cc2)oc2cc(OS(=O)(=O)[O-])cc(OCCOc3cc(OS(=O)(=O)[O-])cc4oc(-c5ccc(OS(=O)(=O)[O-])cc5)cc(=O)c34)c12.[Na+].[Na+].[Na+].[Na+] [NSGM 7, Sodium 4-Oxo-5-(2-((4-oxo-7-(sulfonatooxy)-2-(4-(sulfonatooxy)phenyl)-4H-chromen-5-yl)oxy)ethoxy)-2-(4-(sulfonatooxy)phenyl)-4H-chromen-7-yl Sulfate] | 2.4 ± 0.3 |  |
| O=c1c(OS(=O)(=O)[O-])c(-c2ccc(OS(=O)(=O)[O-])c(OS(=O)(=O)[O-])c2)oc2cc(OS(=O)(=O)[O-])cc(OCCCCOc3cc(OS(=O)(=O)[O-])cc4oc(-c5ccc(OS(=O)(=O)[O-])c(OS(=O)(=O)[O-])c5)c(OS(=O)(=O)[O-])c(=O)c34)c12.[Na+].[Na+].[Na+].[Na+].[Na+].[Na+].[Na+].[Na+] [NSGM 1] | 1.0 ± 0.2 |  |
| O=c1cc(-c2ccc(OS(=O)(=O)[O-])cc2)oc2cc(OS(=O)(=O)[O-])cc(OCCCCOc3cc(OS(=O)(=O)[O-])cc4oc(-c5ccc(OS(=O)(=O)[O-])cc5)cc(=O)c34)c12.[Na+].[Na+].[Na+].[Na+] [NSGM 9, Sodium 4-Oxo-5-(4-((4-oxo-7-(sulfonatooxy)-2-(4-(sulfonatooxy)phenyl)-4H-chromen-5-yl)oxy)butoxy)-2-(4-(sulfonatooxy)phenyl)-4H-chromen-7-yl Sulfate] | 1.8 ± 0.3 |  |
| O=c1cc(-c2ccc(OS(=O)(=O)[O-])cc2)oc2cc(OS(=O)(=O)[O-])cc(OC/C=C/COc3cc(OS(=O)(=O)[O-])cc4oc(-c5ccc(OS(=O)(=O)[O-])cc5)cc(=O)c34)c12.[Na+].[Na+].[Na+].[Na+] [NSGM 10, Sodium (E)-4-Oxo-5-((4-((4-oxo-7-(sulfonatooxy)-2-(4-(sulfonatooxy)phenyl)-4H-chromen-5-yl)oxy)but-2-en-1-yl)-oxy)-2-(4-(sulfonatooxy)phenyl)-4H-chromen-7-yl Sulfate] | 0.9 ± 0.2 |  |
| O=c1c(O)c(-c2ccc(O)c(O)c2)oc2cc(O)cc(OCc3ccc(COc4cc(O)cc5oc(-c6ccc(O)c(O)c6)c(O)c(=O)c45)cc3)c12 [1j, 5,5′-((1,4-Phenylenebis(methylene))bis(oxy))bis(2-(3,4-dihydroxyphenyl)-3,7-dihydroxy-4H-chromen-4-one)] |  | VMAX (human plasmin [2]; [inhibitor] 100 μM): 51.0 ± 4.6 mAU/min; VMAX (human plasmin [2]; [inhibitor] 240 μM): 51.7 ± 3.9 mAU/min; VMAX (human plasmin [2]; [inhibitor] 400 μM): 51.3 ± 4.0 mAU/min; mechanism of plasmin inhibition (human plasmin [2]; from Michaelis-Menten kinetics): competitive; fold increase in KM (human plasmin [2]; inhibitor concentration reaching 400 μM): ~ 13.5 fold; VMAX across inhibitor concentrations (human plasmin [2]; inhibitor concentration reaching 400 μM, essentially unchanged): 50.6–51.3 mAU/min; fold less potent plasmin inhibition than NSGM 2 (human plasmin [1]; 1j versus 2): about 18.3 fold |
| O=c1c(OS(=O)(=O)[O-])c(-c2ccc(OS(=O)(=O)[O-])c(OS(=O)(=O)[O-])c2)oc2cc(OS(=O)(=O)[O-])cc(OCc3ccc(COc4cc(OS(=O)(=O)[O-])cc5oc(-c6ccc(OS(=O)(=O)[O-])c(OS(=O)(=O)[O-])c6)c(OS(=O)(=O)[O-])c(=O)c45)cc3)c12.[Na+].[Na+].[Na+].[Na+].[Na+].[Na+].[Na+].[Na+] | 0.7 ± 0.1 | VMAX (human plasmin [2]; [inhibitor] 1.6 μM, pH 7.4, 37 °C): 36.3 ± 2.0 mAU/min; VMAX (human plasmin [2]; [inhibitor] 8 μM): 29.0 ± 0.6 mAU/min; VMAX (human plasmin [2]; [inhibitor] 100 μM): 15.1 ± 1.0 mAU/min; VMAX (human plasmin [2]; [inhibitor] 200 μM, listed as 2): 10.4 mAU/min and 10.4 ± 0.5 mAU/min |

Continued, in another order:

| HS (Hill slope) (human plasmin [1]) | SMILES | further results |
| --- | --- | --- |
| 0.9 ± 0.1 | O=c1cc(-c2ccc(OS(=O)(=O)[O-])cc2)oc2cc(OS(=O)(=O)[O-])cc(OCc3ccc(COc4cc(OS(=O)(=O)[O-])cc5oc(-c6ccc(OS(=O)(=O)[O-])c(OS(=O)(=O)[O-])c6)c(OS(=O)(=O)[O-])c(=O)c45)cc3)c12.[Na+].[Na+].[Na+].[Na+].[Na+].[Na+] [NSGM 16, Sodium 4-(4-Oxo-5-((4-(((4-oxo-7-(sulfonatooxy)-2-(4-(sulfonatooxy)phenyl)-4H-chromen-5-yl)oxy)methyl)benzyl)-oxy)-3,7-bis(sulfonatooxy)-4H-chromen-2-yl)-1,2-phenylene Bis(sulfate)] |  |
| 1.2 ± 0.2 | O=c1cc(-c2ccc(OS(=O)(=O)[O-])cc2)oc2cc(OS(=O)(=O)[O-])cc(OCc3cccc(COc4cc(OS(=O)(=O)[O-])cc5oc(-c6ccc(OS(=O)(=O)[O-])cc6)cc(=O)c45)n3)c12.[Na+].[Na+].[Na+].[Na+] [NSGM 15, Sodium 4-Oxo-5-((6-(((4-oxo-7-(sulfonatooxy)-2-(4-(sulfonatooxy)phenyl)-4H-chromen-5-yl)oxy)methyl)pyridin-2-yl)methoxy)-2-(4-(sulfonatooxy)phenyl)-4H-chromen-7-yl Sulfate] |  |
| 1.1 ± 0.1 | O=c1cc(-c2ccc(OS(=O)(=O)[O-])cc2)oc2cc(OS(=O)(=O)[O-])cc(OCc3ccc(-c4ccc(COc5cc(OS(=O)(=O)[O-])cc6oc(-c7ccc(OS(=O)(=O)[O-])cc7)cc(=O)c56)cc4)cc3)c12.[Na+].[Na+].[Na+].[Na+] [NSGM 12, Sodium 4-Oxo-5-((4′-(((4-oxo-7-(sulfonatooxy)-2-(4-(sulfonatooxy)phenyl)-4H-chromen-5-yl)oxy)methyl)-[1,1′-bi-phenyl]-4-yl)methoxy)-2-(4-(sulfonatooxy)phenyl)-4H-chromen-7-yl Sulfate] |  |
| 2.4 ± 0.3 | O=c1cc(-c2ccc(OS(=O)(=O)[O-])cc2)oc2cc(OS(=O)(=O)[O-])cc(OCc3ccc(COc4cc(OS(=O)(=O)[O-])cc5oc(-c6ccc(OS(=O)(=O)[O-])cc6)cc(=O)c45)cc3)c12.[Na+].[Na+].[Na+].[Na+] [NSGM 11, Sodium 4-Oxo-5-((4-(((4-oxo-7-(sulfonatooxy)-2-(4-(sulfonatooxy)phenyl)-4H-chromen-5-yl)oxy)methyl)benzyl)-oxy)-2-(4-(sulfonatooxy)phenyl)-4H-chromen-7-yl Sulfate] |  |
| 2.0 ± 0.1 | Cc1cc(COc2cc(OS(=O)(=O)[O-])cc3oc(-c4ccc(OS(=O)(=O)[O-])cc4)cc(=O)c23)c(C)cc1COc1cc(OS(=O)(=O)[O-])cc2oc(-c3ccc(OS(=O)(=O)[O-])cc3)cc(=O)c12.[Na+].[Na+].[Na+].[Na+] [NSGM 13, Sodium 5-((2,5-Dimethyl-4-(((4-oxo-7-(sulfonatooxy)-2-(4-(sulfonatooxy)phenyl)-4H-chromen-5-yl)oxy)methyl)benzyl)-oxy)-4-oxo-2-(4-(sulfonatooxy)phenyl)-4H-chromen-7-yl Sulfate] |  |
| 2.3 ± 0.5 | O=c1cc(-c2ccc(OS(=O)(=O)[O-])cc2)oc2cc(OS(=O)(=O)[O-])cc(OCc3cccc(COc4cc(OS(=O)(=O)[O-])cc5oc(-c6ccc(OS(=O)(=O)[O-])cc6)cc(=O)c45)c3)c12.[Na+].[Na+].[Na+].[Na+] [NSGM 14, Sodium 4-Oxo-5-((3-(((4-oxo-7-(sulfonatooxy)-2-(4-(sulfonatooxy)phenyl)-4H-chromen-5-yl)oxy)methyl)benzyl)-oxy)-2-(4-(sulfonatooxy)phenyl)-4H-chromen-7-yl Sulfate] |  |
